Source: the OligoGym collection
HELM strings list units from the 5' end as sugar, base in round brackets, then linkage (d deoxyribose, r ribose, m 2'-O-methyl, p phosphodiester). Strings are as the collection lists them; they lack the last nucleoside at the 3' end of the tested compound. [moe] = 2'-O-(2-methoxyethyl) (MOE); [sp] = phosphorothioate linkage; [m5C] = 5-methylcytosine

What follows are substances tested against ATXN2 (assay: mouse, dose not given). Settings: ASO.
“RNA1{[moe](G)[sp].[moe](T)p.[moe](T)p.[moe](G)p.[moe](T)p.d(T)[sp].d(G)[sp].d(T)[sp].d(T)[sp].d(T)[sp].d(A)[sp].d([m5C])[sp].d(A)[sp].d(T)[sp].d(T)[sp].[moe](A)p.[moe](T)p.[moe](T)[sp].[moe](A)}$$$$ (last 3' nucleoside missing)” was tested, and the 3 h FOB score was 0 score 0-7. In the case of “RNA1{[moe](G)[sp].[moe](T)p.[moe](T)p.[moe](G)p.[moe]([m5C])p.d(A)[sp].d([m5C])[sp].d(A)[sp].d(T)[sp].d(A)[sp].d(G)[sp].d(G)[sp].d(T)[sp].d(T)[sp].d(A)[sp].[moe](G)p.[moe](A)p.[moe](A)[sp].[moe](T)}$$$$ (last 3' nucleoside missing)”, the 3 h FOB score is reported as 6 score 0-7. “RNA1{[moe](G)[sp].[moe](T)p.[moe](T)p.[moe](T)p.[moe](A)p.d(A)[sp].d(T)[sp].d(T)[sp].d(T)[sp].d(G)[sp].d(T)[sp].d(A)[sp].d(A)[sp].d([m5C])[sp].d(T)[sp].[moe](A)p.[moe](G)p.[moe](G)[sp].[moe](T)}$$$$ (last 3' nucleoside missing)” was tested, and the 3 h FOB score was 3.5 score 0-7. With “RNA1{[moe](G)[sp].[moe](T)p.[moe](T)p.[moe](T)p.[moe](G)p.d(G)[sp].d(A)[sp].d(A)[sp].d(T)[sp].d([m5C])[sp].d(T)[sp].d(T)[sp].d(A)[sp].d(T)[sp].d(T)[sp].[moe](A)p.[moe](A)p.[moe](G)[sp].[moe]([m5C])}$$$$ (last 3' nucleoside missing)” the 3 h FOB score was 1 score 0-7. “RNA1{[moe](G)[sp].[moe](T)p.[moe](T)p.[moe](T)p.[moe](T)p.d(G)[sp].d(T)[sp].d(T)[sp].d(T)[sp].d(A)[sp].d(A)[sp].d(T)[sp].d([m5C])[sp].d(A)[sp].d([m5C])[sp].[moe](A)p.[moe](G)p.[moe](T)[sp].[moe](T)}$$$$ (last 3' nucleoside missing)” gave a 3 h FOB score of 2 score 0-7. With “RNA1{[moe](G)[sp].[moe](T)p.[moe](T)p.[moe]([m5C])p.[moe](A)p.d(A)[sp].d(A)[sp].d(T)[sp].d(T)[sp].d([m5C])[sp].d([m5C])[sp].d(G)[sp].d(G)[sp].d([m5C])[sp].d(T)[sp].[moe]([m5C])p.[moe]([m5C])p.[moe](A)[sp].[moe](T)}$$$$ (last 3' nucleoside missing)” the 3 h FOB score was 5.25 score 0-7. Substance “RNA1{[moe](G)[sp].[moe](T)p.[moe](T)p.[moe]([m5C])p.[moe](A)p.d(T)[sp].d(G)[sp].d(A)[sp].d([m5C])[sp].d(T)[sp].d(T)[sp].d(T)[sp].d([m5C])[sp].d(A)[sp].d(A)[sp].[moe](G)p.[moe](G)p.[moe](G)[sp].[moe](T)}$$$$ (last 3' nucleoside missing)” has a 3 h FOB score of 2 score 0-7. Substance “RNA1{[moe](G)[sp].[moe](T)p.[moe](T)p.[moe]([m5C])p.[moe](A)p.d(T)[sp].d(T)[sp].d([m5C])[sp].d([m5C])[sp].d(A)[sp].d(G)[sp].d(A)[sp].d(T)[sp].d(T)[sp].d(T)[sp].[moe]([m5C])p.[moe](A)p.[moe]([m5C])[sp].[moe](T)}$$$$ (last 3' nucleoside missing)” has a 3 h FOB score of 4 score 0-7. In the case of “RNA1{[moe](G)[sp].[moe](T)p.[moe](T)p.[moe]([m5C])p.[moe](A)p.d(T)[sp].d([m5C])[sp].d(T)[sp].d(T)[sp].d(T)[sp].d(T)[sp].d([m5C])[sp].d([m5C])[sp].d(T)[sp].d(T)[sp].[moe]([m5C])p.[moe](A)p.[moe](G)[sp].[moe](A)}$$$$ (last 3' nucleoside missing)”, the 3 h FOB score is reported as 0 score 0-7. Substance “RNA1{[moe](G)[sp].[moe](T)p.[moe](T)p.[moe]([m5C])p.[moe]([m5C])p.d(T)[sp].d(T)[sp].d(A)[sp].d([m5C])[sp].d(A)[sp].d(A)[sp].d(T)[sp].d(T)[sp].d(A)[sp].d(T)[sp].[moe]([m5C])p.[moe](T)p.[moe](A)[sp].[moe](T)}$$$$ (last 3' nucleoside missing)” has a 3 h FOB score of 3 score 0-7. With “RNA1{[moe](G)[sp].[moe](T)p.[moe]([m5C])p.[moe](T)p.[moe](T)p.d(G)[sp].d(T)[sp].d(T)[sp].d([m5C])[sp].d(A)[sp].d(G)[sp].d(T)[sp].d(G)[sp].d(T)[sp].d([m5C])[sp].[moe]([m5C])p.[moe](T)p.[moe](T)[sp].[moe]([m5C])}$$$$ (last 3' nucleoside missing)” the 3 h FOB score was 6 score 0-7. Substance “RNA1{[moe](G)[sp].[moe]([m5C])[sp].[moe](T)[sp].[moe](A)[sp].[moe](A)[sp].d([m5C])[sp].d(T)[sp].d(G)[sp].d(G)[sp].d(T)[sp].d(T)[sp].d(T)[sp].d(G)[sp].d([m5C])[sp].d([m5C])[sp].[moe]([m5C])[sp].[moe](T)[sp].[moe](T)[sp].[moe](G)}$$$$ (last 3' nucleoside missing)” has a 3 h FOB score of 7 score 0-7. Work on “RNA1{[moe](G)[sp].[moe]([m5C])p.[moe](A)p.[moe](A)p.[moe](A)p.d(G)[sp].d(A)[sp].d([m5C])[sp].d(T)[sp].d(T)[sp].d(T)[sp].d(G)[sp].d(A)[sp].d(A)[sp].d(A)[sp].[moe](T)p.[moe]([m5C])p.[moe](T)[sp].[moe]([m5C])}$$$$ (last 3' nucleoside missing)” yielded a 3 h FOB score of 0 score 0-7. With “RNA1{[moe](G)[sp].[moe]([m5C])p.[moe](A)p.[moe](A)p.[moe]([m5C])p.d(T)[sp].d(T)[sp].d(A)[sp].d(A)[sp].d(T)[sp].d(A)[sp].d(A)[sp].d([m5C])[sp].d([m5C])[sp].d(T)[sp].[moe](T)p.[moe](A)p.[moe](G)[sp].[moe](T)}$$$$ (last 3' nucleoside missing)” the 3 h FOB score was 0 score 0-7. “RNA1{[moe](G)[sp].[moe]([m5C])p.[moe](A)p.[moe](T)p.[moe](G)p.d(A)[sp].d(T)[sp].d([m5C])[sp].d(T)[sp].d(T)[sp].d(G)[sp].d(T)[sp].d(G)[sp].d(T)[sp].d(A)[sp].[moe](T)p.[moe](A)p.[moe](T)[sp].[moe](A)}$$$$ (last 3' nucleoside missing)” showed a 3 h FOB score of 1 score 0-7. “RNA1{[moe](G)[sp].[moe]([m5C])p.[moe](A)p.[moe](T)p.[moe]([m5C])p.d(A)[sp].d(T)[sp].d(T)[sp].d(A)[sp].d([m5C])[sp].d(G)[sp].d(A)[sp].d([m5C])[sp].d([m5C])[sp].d(A)[sp].[moe](T)p.[moe](T)p.[moe]([m5C])[sp].[moe](T)}$$$$ (last 3' nucleoside missing)” gave a 3 h FOB score of 4 score 0-7. “RNA1{[moe](G)[sp].[moe]([m5C])p.[moe](A)p.[moe]([m5C])p.[moe](A)p.d(T)[sp].d(A)[sp].d(G)[sp].d(G)[sp].d(T)[sp].d(T)[sp].d(A)[sp].d(G)[sp].d(A)[sp].d(A)[sp].[moe](T)p.[moe](T)p.[moe](T)[sp].[moe](T)}$$$$ (last 3' nucleoside missing)” gave a 3 h FOB score of 4 score 0-7. In the case of “RNA1{[moe](G)[sp].[moe]([m5C])p.[moe](G)p.[moe](G)p.[moe](T)p.d(G)[sp].d(A)[sp].d(A)[sp].d(T)[sp].d(T)[sp].d([m5C])[sp].d(T)[sp].d(G)[sp].d(T)[sp].d([m5C])[sp].[moe](T)p.[moe]([m5C])p.[moe]([m5C])[sp].[moe]([m5C])}$$$$ (last 3' nucleoside missing)”, the 3 h FOB score is reported as 0 score 0-7. In the case of “RNA1{[moe](G)[sp].[moe]([m5C])p.[moe](T)p.[moe](A)p.[moe](A)[sp].d([m5C])[sp].d(T)[sp].d(G)[sp].d(G)[sp].d(T)[sp].d(T)[sp].d(T)[sp].d(G)[sp].[moe]([m5C])p.[moe]([m5C])p.[moe]([m5C])[sp].[moe](T)}$$$$ (last 3' nucleoside missing)”, the 3 h FOB score is reported as 6.5 score 0-7. Work on “RNA1{[moe](G)[sp].[moe]([m5C])p.[moe](T)p.[moe](A)p.[moe](A)p.d([m5C])[sp].d(T)[sp].d(G)[sp].d(G)[sp].d(T)[sp].d(T)[sp].d(T)[sp].d(G)[sp].d([m5C])[sp].d([m5C])[sp].[moe]([m5C])p.[moe](T)p.[moe](T)[sp].[moe](G)}$$$$ (last 3' nucleoside missing)” yielded a 3 h FOB score of 6.75 score 0-7. For “RNA1{[moe](G)[sp].[moe]([m5C])p.[moe](T)p.[moe](G)p.[moe](A)p.d(T)[sp].d(G)[sp].d(T)[sp].d(G)[sp].d(T)[sp].d(T)[sp].d([m5C])[sp].d(A)[sp].d(T)[sp].d(G)[sp].[moe](A)p.[moe]([m5C])p.[moe](T)[sp].[moe](T)}$$$$ (last 3' nucleoside missing)”, the 3 h FOB score was 4.5 score 0-7. For “RNA1{[moe](G)[sp].[moe]([m5C])p.[moe](T)p.[moe](G)p.[moe](G)p.d(T)[sp].d(T)[sp].d([m5C])[sp].d([m5C])[sp].d(T)[sp].d(T)[sp].d(A)[sp].d([m5C])[sp].d(A)[sp].d(A)[sp].[moe](T)p.[moe](T)p.[moe](A)[sp].[moe](T)}$$$$ (last 3' nucleoside missing)”, the 3 h FOB score was 0 score 0-7. For “RNA1{[moe](G)[sp].[moe]([m5C])p.[moe](T)p.[moe](G)p.[moe](T)p.d(A)[sp].d(T)[sp].d(T)[sp].d(T)[sp].d(T)[sp].d(T)[sp].d(A)[sp].d([m5C])[sp].d(T)[sp].d([m5C])[sp].[moe](A)p.[moe]([m5C])p.[moe]([m5C])[sp].[moe](T)}$$$$ (last 3' nucleoside missing)”, the 3 h FOB score was 0 score 0-7. With “RNA1{[moe](G)[sp].[moe]([m5C])p.[moe](T)p.[moe](G)p.[moe](T)p.d(G)[sp].d(A)[sp].d(G)[sp].d(T)[sp].d(T)[sp].d([m5C])[sp].d(A)[sp].d([m5C])[sp].d([m5C])[sp].d(T)[sp].[moe](G)p.[moe]([m5C])p.[moe](A)[sp].[moe](T)}$$$$ (last 3' nucleoside missing)” the 3 h FOB score was 0 score 0-7. “RNA1{[moe](G)[sp].[moe]([m5C])p.[moe](T)p.[moe](G)p.[moe](T)p.d(G)[sp].d(T)[sp].d(A)[sp].d(T)[sp].d(T)[sp].d(T)[sp].d(T)[sp].d(T)[sp].d([m5C])[sp].d(T)[sp].[moe](T)p.[moe]([m5C])p.[moe]([m5C])[sp].[moe](T)}$$$$ (last 3' nucleoside missing)” showed a 3 h FOB score of 0 score 0-7. “RNA1{[moe](G)[sp].[moe]([m5C])p.[moe](T)p.[moe](T)p.[moe](A)[sp].d(G)[sp].d(A)[sp].d(G)[sp].d(T)[sp].d(T)[sp].d(T)[sp].d(T)[sp].d(T)[sp].[moe](G)p.[moe]([m5C])p.[moe]([m5C])[sp].[moe](T)}$$$$ (last 3' nucleoside missing)” gave a 3 h FOB score of 4 score 0-7.
